From patent US20190062305A1, “PYRIDYL OR PYRAZINYL COMPOUNDS CARRYING A METHYL-BOUND ALPHA-AMINO ACID AMIDE GROUP” (ABBVIE DEUTSCHLAND GMBH & CO. KG, priority 2015, published 2019)
Counter-ions that a name gives are not always drawn.

Assays:
5-HT2C receptor = molecular target: T1, 5-HT2C receptor (Homo sapiens, UniProt P28335); experiment: Human 5-HT2C functional assay (beta-arrestin2 recruitment, U2OS_HTR2C_β-Arrestin cells); type: cell-based; conditions: for EC50: beta-arrestin2 recruitment, U2OS_HTR2C_β-Arrestin cells, 1.5 h incubation, read-out: EC50 5-HT2C (potency in functional assay); for Emax: relative efficacy vs response to 10 μM 5-HT or maximal 5-HT effect (100%)
T1 construct: host or cells: U2OS
Method in brief: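 U2OS cells expressing HTR2C with β-galactosidase complementation, switched to 1% serum medium 24 h post-plating, were treated next day with compound for 1.5 h; chemiluminescence read. Response expressed as % of 10 µM 5-HT or maximal 5-HT effect; EC50 from 4-parameter variable-slope fit.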

[1] = Metabolic stability in human liver microsomes, unbound intrinsic clearance (Cl int/fu mic); type: in vitro ADME; conditions: human, liver microsomes, pH 7.4, human liver microsomes 0.25 mg/mL, 0.5 μM compound, NADPH, read-out: Cl int, mic unb. (h) [l/h/kg] (unbound intrinsic clearance, human)
Experimental: Samples of the tested compounds (0.5 μM) were preincubated together with human liver microsomes (0.25 mg of microsomal protein/mL) in 0.05 M potassium phosphate buffer of pH 7.4 in microtiter plates at 37° C. for 5 minutes. The reaction was started by adding NADPH (1.0 mM). After 0, 5, 10, 15, 20 and 30 minutes, an aliquot was removed, the reaction was cooled and stopped by adding twice the amount of quench solution consisting of acetonitrile/methanol 1:1, and containing 0.2 μM carbutamide as internal standard. The samples were frozen until analyzed. The remaining concentration of undegraded test substance was determined by liquid chromatography-tandem mass spectrometry (LC-MS/MS). The half-life (t1/2) was determined from the gradient of the ratio of the signal of (test substance/internal standard)/unit time plot, allowing the calculation of the half-life of the test substance, assuming first order kinetics, from the decrease in the concentration of the compound with time. The microsomal clearance ([…]) was calculated as follows: […]=((ln(2)/t 1⁄2)/Microsomal Protein Concentration (mg/ml))*1000, leading to the unit of uL/min/mg. The scaled clearance (mClin_scaled) was calculated as […]_scaled=m CLint*(Microsomal Yield (mg/kg BW))/1000000*60, leading to the units L/h/kg. The Microsomal Yield is defined by the specifics of the used microsomes. Calculations were modified from references: Di, The Society for Biomolecular Screening, 2003, 453-462; Obach, D M D, 1999 vol 27. N 11, 1350-1359. A suspension of 0.25 mg/ml microsomal protein spiked with 0.5 μM of test compound was pipetted on one side of a HTDialysis device (HTDialysis LLC, 37 Ledgewood Drive, Gales Fery CT 06335) separated by a membrane with a MWcut off 12-14 K. 50 mM K-Phosphate buffer (pH 7.4) was added on the other side of the well. After incubation at 37° C. for 4 h while shaking at 150 rpm, aliquots of both sides were taken, quenched with MeOH/ACN 1:1 and 0.2 μM of internal standard and frozen until analysis by LCMSMS Cl int unbound=Cl int/fu mic

T1 sequence (P28335 33-458): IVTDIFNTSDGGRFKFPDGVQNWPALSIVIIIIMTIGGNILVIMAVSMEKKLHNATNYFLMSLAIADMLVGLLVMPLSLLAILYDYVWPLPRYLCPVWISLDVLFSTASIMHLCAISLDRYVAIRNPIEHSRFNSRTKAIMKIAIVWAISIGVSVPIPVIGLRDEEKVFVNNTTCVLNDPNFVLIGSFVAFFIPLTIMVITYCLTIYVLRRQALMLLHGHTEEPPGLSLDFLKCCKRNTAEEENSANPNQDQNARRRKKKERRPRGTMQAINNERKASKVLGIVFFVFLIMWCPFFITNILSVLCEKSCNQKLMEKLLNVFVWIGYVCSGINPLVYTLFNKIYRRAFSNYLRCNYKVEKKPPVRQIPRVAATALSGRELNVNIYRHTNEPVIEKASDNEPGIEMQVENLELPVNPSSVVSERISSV
T1 sequence (P32121 whole entry partner): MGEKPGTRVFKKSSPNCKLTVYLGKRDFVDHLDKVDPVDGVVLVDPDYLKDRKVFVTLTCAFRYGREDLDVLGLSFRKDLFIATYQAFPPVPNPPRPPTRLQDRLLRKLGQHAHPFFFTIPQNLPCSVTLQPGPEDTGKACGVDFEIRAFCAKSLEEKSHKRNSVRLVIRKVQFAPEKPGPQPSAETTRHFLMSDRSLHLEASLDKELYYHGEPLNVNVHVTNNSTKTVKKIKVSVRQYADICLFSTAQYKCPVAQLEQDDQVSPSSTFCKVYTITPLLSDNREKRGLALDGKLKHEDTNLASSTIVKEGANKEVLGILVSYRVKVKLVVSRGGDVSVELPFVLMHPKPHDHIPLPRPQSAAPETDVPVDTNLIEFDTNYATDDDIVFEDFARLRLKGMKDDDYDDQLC

Row | Structure (SMILES) | EC50 (5-HT2C receptor) | Emax (5-HT2C receptor) | CLint scaled at 0.5 μM [1]
1 | COc1nc(OC2CCC(F)(F)CC2)c(F)cc1CNC(=O)C(C)N1CCC1 (stereo not drawn) [Example 43, 2-(Azetidin-1-yl)-N-[[6-(4,4-difluorocyclohexoxy)-5-fluoro-2-methoxy-3-pyridyl]-methyl]propanamide; Succinic Acid] | 20 to 200 nM | > 70% | < 5 L/h/kg
2 | COc1nc(OC2CC(F)(F)C2)c(F)cc1CNC(=O)[C@@H]1CCCN1 [Example 44, (2S)—N-[[6-(3,3-Difluorocyclobutoxy)-5-fluoro-2-methoxy-3-pyridyl]methyl]-pyrrolidine-2-carboxamide; Succinic Acid] | < 20 nM | > 70% | < 5 L/h/kg
3 | COc1nc(OCC(F)(F)C(F)F)c(F)cc1CNC(=O)[C@@H]1CCCN1 [Example 46, (2S)—N-[[5-Fluoro-2-methoxy-6-(2,2,3,3-tetrafluoropropoxy)-3-pyridyl]methyl]-pyrrolidine-2-carboxamide; Succinic Acid] | < 20 nM | > 70% | < 5 L/h/kg
4 | COc1nc(OCC2CC(F)(F)C2(F)F)c(F)cc1CNC(=O)[C@@H]1CCCN1 (stereo partly drawn) [Example 47, (2S)—N-[[5-Fluoro-2-methoxy-6-[(2,2,3,3-tetrafluorocyclobutyl)methoxy]-3-pyridyl]methyl]pyrrolidine-2-carboxamide; Succinic Acid] | < 20 nM | > 70% | < 5 L/h/kg
5 | COc1nc(OCC2(C(F)(F)F)CC2)c(F)cc1CNC(=O)[C@@H]1CCCN1 [Example 48, (2S)—N-[[5-Fluoro-2-methoxy-6-[[1-(trifluoromethyl)cyclopropyl]methoxy]-3-pyridyl]methyl]pyrrolidine-2-carboxamide; Succinic Acid] | < 20 nM | > 70% | < 5 L/h/kg
6 | COc1nc(OCC(C)CC(F)(F)F)c(F)cc1CNC(=O)[C@@H]1CCCN1 (stereo partly drawn) [Example 49, (2S)—N-[[5-Fluoro-2-methoxy-6-(4,4,4-trifluoro-2-methyl-butoxy)-3-pyridyl]-methyl]pyrrolidine-2-carboxamide; Succinic Acid] | < 20 nM | > 70% | 5 to 50 L/h/kg
7 | COc1nc(OC2CCC(F)(F)CC2)c(F)cc1CNC(=O)[C@H]1CCCN1C [Example 52, (2R)—N-[[6-(4,4-Difluorocyclohexoxy)-5-fluoro-2-methoxy-3-pyridyl]methyl]-1-methyl-pyrrolidine-2-carboxamide Hydrochloride] | 20 to 200 nM | > 70% | < 5 L/h/kg
8 | COc1nc(OC(C)C(F)(F)C(F)F)c(F)cc1CNC(=O)[C@@H]1CCCN1 (stereo partly drawn) [Example 53, (2S)—N-[[5-Fluoro-2-methoxy-6-(2,2,3,3-tetrafluoro-1-methyl-propoxy)-3-pyridyl]-methyl]pyrrolidine-2-carboxamide; Succinic Acid] | < 20 nM | > 70% | < 5 L/h/kg
9 | COc1nc(OC2CC3C(C2)C3(F)F)c(F)cc1CNC(=O)[C@@H]1CCCN1 (stereo partly drawn) [Example 54, (2S)—N-[[6-[(6,6-Difluoro-3-bicyclo[3.1.0]hexanyl)oxy]-5-fluoro-2-methoxy-3-pyridyl]methyl]pyrrolidine-2-carboxamide 2,2,2-trifluoroacetic Acid] | < 20 nM | > 70% | < 5 L/h/kg
10 | COc1nc(O[C@@H]2CCCC[C@H]2F)c(F)cc1CNC(=O)[C@@H]1CCCN1 [Example 55, (2S)—N-[[5-Fluoro-6-[(1R,2R)-2-fluorocyclohexoxy]-2-methoxy-3-pyridyl]methyl]pyrrolidine-2-carboxamide; 2,2,2-trifluoroacetic Acid] | < 20 nM | > 70% | < 5 L/h/kg
11 | COc1nc(OCC2CC3C(C2)C3(F)F)c(F)cc1CNC(=O)[C@@H]1CCCN1 (stereo partly drawn) [Example 56, (2S)—N-[[6-[(6,6-Difluoro-3-bicyclo[3.1.0]hexanyl)methoxy]-5-fluoro-2-methoxy-3-pyridyl]methyl]pyrrolidine-2-carboxamide; 2,2,2-trifluoroacetic Acid] | < 20 nM | > 70% | 5 to 50 L/h/kg
12 | COc1nc(OC2CCCC(F)(F)C2)c(F)cc1CNC(=O)[C@@H]1CCCN1 (stereo partly drawn) [Example 58, (2S)—N-[[6-(3,3-Difluorocyclohexoxy)-5-fluoro-2-methoxy-3-pyridyl]methyl]-pyrrolidine-2-carboxamide; 2,2,2-trifluoroacetic Acid] | < 20 nM | > 70% | < 5 L/h/kg
13 | COc1nc(OC2CCC(F)(F)CC2)c(F)cc1CNC(=O)[C@@H]1C[C@@H](C)CN1 [Example 59, (2 S,4R)—N-[[6-(4,4-Difluorocyclohexoxy)-5-fluoro-2-methoxy-3-pyridyl]methyl]-4-methyl-pyrrolidine-2-carboxamide Hydrochloride] | < 20 nM | 50 to 70% | < 5 L/h/kg
14 | COc1nc(OC2CCC(C(F)(F)F)CC2)c(F)cc1CNC(=O)[C@@H]1C[C@@H](C)CN1 (stereo partly drawn) [Example 60, (2S,4R)—N-[[5-Fluoro-2-methoxy-6-[4-(trifluoromethyl)cyclohexoxy]-3-pyridyl]methyl]-4-methyl-pyrrolidine-2-carboxamide Hydrochloride] | 20 to 200 nM | 50 to 70% | 50 to 500 L/h/kg
15 | COc1nc(OC2CCC(F)(F)CC2)c(F)cc1CNC(=O)[C@@H]1C[C@@H](C)CN1C [Example 61, (2S,4R)—N-[[6-(4,4-Difluorocyclohexoxy)-5-fluoro-2-methoxy-3-pyridyl]methyl]-1,4-dimethyl-pyrrolidine-2-carboxamide Hydrochloride] | 20 to 200 nM | > 70% | 5 to 50 L/h/kg
16 | COc1nc(OC2CCC(C(F)(F)F)CC2)c(F)cc1CNC(=O)[C@@H]1C[C@@H](C)CN1C (stereo partly drawn) [Example 62, (2S,4R)—N-[[5-Fluoro-2-methoxy-6-[4-(trifluoromethyl)cyclohexoxy]-3-pyridyl]methyl]-1,4-dimethyl-pyrrolidine-2-carboxamide Hydrochloride] | 20 to 200 nM | > 70% | 50 to 500 L/h/kg
17 | COc1nc(OCC2(C(F)(F)F)CC2)c(F)cc1CNC(=O)[C@@H]1CCCN1C [Example 63, (2S)—N-[[5-Fluoro-2-methoxy-6-[[1-(trifluoromethyl)cyclopropyl]methoxy]-3-pyridyl]methyl]-1-methyl-pyrrolidine-2-carboxamide Hydrochloride] | < 20 nM | > 70% | < 5 L/h/kg
18 | Cc1nc(OC2CCC(C(F)(F)F)CC2)ccc1CNC(=O)C1CCCN1 [Example 65, (S)—N-((2-Methyl-6-(((1R,4S)-4-(trifluoromethyl)cyclohexyl)oxy)pyridin-3-yl)methyl)pyrrolidine-2-carboxamide] | 20 to 200 nM | 50 to 70% | < 5 L/h/kg
19 | COc1nc(OC2CCC(C(F)F)CC2)c(F)cc1CNC(=O)[C@@H]1CCCN1 (stereo partly drawn) [Example 66, (2S)—N-[[6-[4-(Difluoromethyl)cyclohexoxy]-5-fluoro-2-methoxy-3-pyridyl]methyl]-pyrrolidine-2-carboxamide hydrochloride] | < 20 nM | > 70% | 5 to 50 L/h/kg
20 | COc1nc(OCC2CC2(F)F)c(F)cc1CNC(=O)[C@@H]1CCCN1C (stereo partly drawn) [Example 68, (2S)—N-[[6-[(2,2-Difluorocyclopropyl)methoxy]-5-fluoro-2-methoxy-3-pyridyl]-methyl]-1-methyl-pyrrolidine-2-carboxamide Hydrochloride] | < 20 nM | > 70% | < 5 L/h/kg
21 | COc1nc(OC2CC(F)(F)C2)c(F)cc1CNC(=O)[C@@H]1CCCN1C [Example 71, (2S)—N-[[6-(3,3-Difluorocyclobutoxy)-5-fluoro-2-methoxy-3-pyridyl]methyl]-1-methyl-pyrrolidine-2-carboxamide Hydrochloride] | < 20 nM | > 70% | < 5 L/h/kg
22 | COc1nc(OC2CCC(C(C)(F)F)CC2)c(F)cc1CNC(=O)[C@@H]1CCCN1 (stereo partly drawn) [Example 72, (2S)—N-((6-((4-(1,1-Difluoroethyl)cyclohexyl)oxy)-5-fluoro-2-methoxypyridin-3-yl)methyl)pyrrolidine-2-carboxamide 2,2,2-trifluoroacetate] | < 20 nM | > 70% | 5 to 50 L/h/kg
